According to PubChem BioAssay AID1963969 (Molecular Pharmacology Branch, DTP, NCI, 2024):
pIC50: −log10 of the molar value.

Tested on: 817829-284-R-J1-PDC multi-cell spheroid viability
Assay: Anticancer human tumor 817829-284-R-J1-PDC patient-derived colon adenocarcinoma cell line growth inhibition [PI3K]
Conditions: for pIC50: curve of first compound; for viability, T/C: stronger effect = lower value
Summary of the method: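 Three cell types, namely tumor cells, endothelial cells and mesenchymal stem cells, formed each spheroid. Combinations with four PI3K inhibitors were screened at clinically achievable concentrations decreasing by half-log, and spheroid viability was recorded.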

[1] = second compound 0.00316 µM, first compound 0.000316 µM
[2] = second compound 0.00316 µM, first compound 0.001 µM
[3] = second compound 0.00316 µM, first compound 0.00316 µM
[4] = second compound 0.00316 µM, first compound 0.01 µM
[5] = second compound 0.00316 µM, first compound 0.0316 µM
[6] = second compound 0.00316 µM, first compound 0.1 µM
[7] = second compound 0.01 µM, first compound 0.000316 µM
[8] = second compound 0.01 µM, first compound 0.001 µM
[9] = second compound 0.01 µM, first compound 0.00316 µM
[10] = second compound 0.01 µM, first compound 0.01 µM
[11] = second compound 0.01 µM, first compound 0.0316 µM
[12] = second compound 0.01 µM, first compound 0.1 µM
[13] = second compound 0.0316 µM, first compound 0.000316 µM
[14] = second compound 0.0316 µM, first compound 0.001 µM
[15] = second compound 0.0316 µM, first compound 0.00316 µM
[16] = second compound 0.0316 µM, first compound 0.01 µM
[17] = second compound 0.0316 µM, first compound 0.0316 µM
[18] = second compound 0.0316 µM, first compound 0.1 µM
[19] = second compound 0.1 µM, first compound 0.000316 µM
[20] = second compound 0.1 µM, first compound 0.001 µM
[21] = second compound 0.1 µM, first compound 0.00316 µM
[22] = second compound 0.1 µM, first compound 0.01 µM
[23] = second compound 0.1 µM, first compound 0.0316 µM
[24] = second compound 0.1 µM, first compound 0.1 µM
[25] = second compound 0.316 µM, first compound 0.000316 µM
[26] = second compound 0.316 µM, first compound 0.001 µM
[27] = second compound 0.316 µM, first compound 0.00316 µM
[28] = second compound 0.316 µM, first compound 0.01 µM
[29] = second compound 0.316 µM, first compound 0.0316 µM
[30] = second compound 0.316 µM, first compound 0.1 µM
[31] = second compound 1 µM, first compound 0.000316 µM
[32] = second compound 1 µM, first compound 0.001 µM
[33] = second compound 1 µM, first compound 0.00316 µM
[34] = second compound 1 µM, first compound 0.01 µM
[35] = second compound 1 µM, first compound 0.0316 µM
[36] = second compound 1 µM, first compound 0.1 µM
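Note: spheroids exposed to agents for seven days before readout.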
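Throughout, for viability, T/C: percent of vehicle DMSO control viability which is 100%.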

In the case of `CC(=O)c1c(C)c2cnc(Nc3ccc(N4CCNCC4)cn3)nc2n(C2CCCC2)c1=O` + COc1c(OCCCN2CCOCC2)ccc2c3n(c(=NC(=O)c4cnc(N)nc4)nc12)CCN3, the pIC50 (second compound 0.00316 µM) was 7.28, the pIC50 (second compound 0.01 µM) was less than 7.00 and the pIC50 (second compound 0.0316 µM) was 7.91. It also gave a pIC50 (second compound 0.1 µM) greater than 9.50, a pIC50 (second compound 0.316 µM) greater than 9.50 and a pIC50 (second compound 1 µM) greater than 9.50. For the same compound, the viability, T/C [1] was 79.1%, the viability, T/C [2] was 85.2% and the viability, T/C [3] was 66.7%. The viability, T/C [4] was 74.5%, the viability, T/C [5] was 66.6% and the viability, T/C [6] was 30.2%. It also gave a viability, T/C [7] of 91.1%, a viability, T/C [8] of 60% and a viability, T/C [9] of 56%. For the same compound, the viability, T/C [10] was 55.7%, the viability, T/C [11] was 75.7% and the viability, T/C [12] was 34%. The viability, T/C [13] was 65.2%, the viability, T/C [14] was 40.6% and the viability, T/C [15] was 48.3%. It also gave a viability, T/C [16] of 60.6%, a viability, T/C [17] of 33.5% and a viability, T/C [18] of 24.3%. It also gave a viability, T/C [19] of 29.2%, a viability, T/C [20] of 30.3% and a viability, T/C [21] of 34.6%. For the same compound, the viability, T/C [22] was 21.1%, the viability, T/C [23] was 22.7% and the viability, T/C [24] was 25.3%. For the same compound, the viability, T/C [25] was 16.9%, the viability, T/C [26] was 22.2% and the viability, T/C [27] was 20.8%. It also gave a viability, T/C [28] of 17.9%, a viability, T/C [29] of 18.2% and a viability, T/C [30] of 16.2%. For the same compound, the viability, T/C [31] was 11.2%, the viability, T/C [32] was 10.2% and the viability, T/C [33] was 8.91%. For the same compound, the viability, T/C [34] was 12.2%, the viability, T/C [35] was 11.6% and the viability, T/C [36] was 7.24%.
`CC(C)n1nc(-c2ccc3oc(N)nc3c2)c2c(N)ncnc21` + COc1c(OCCCN2CCOCC2)ccc2c3n(c(=NC(=O)c4cnc(N)nc4)nc12)CCN3 gave a pIC50 (second compound 0.00316 µM) of 7.87, a pIC50 (second compound 0.01 µM) of 7.79 and a pIC50 (second compound 0.0316 µM) of 8.28. The pIC50 (second compound 0.1 µM) was greater than 9.50, the pIC50 (second compound 0.316 µM) was greater than 9.50 and the pIC50 (second compound 1 µM) was greater than 9.50. It also gave a viability, T/C [1] of 66.8%, a viability, T/C [2] of 83.7% and a viability, T/C [3] of 72.2%. It also gave a viability, T/C [4] of 45.5%, a viability, T/C [5] of 42.6% and a viability, T/C [6] of 17.8%. The viability, T/C [7] was 44%, the viability, T/C [8] was 83.3% and the viability, T/C [9] was 67.6%. For the same compound, the viability, T/C [10] was 70.9%, the viability, T/C [11] was 26.6% and the viability, T/C [12] was 14.4%. For the same compound, the viability, T/C [13] was 78.5%, the viability, T/C [14] was 72.7% and the viability, T/C [15] was 45.5%. For the same compound, the viability, T/C [16] was 46.5%, the viability, T/C [17] was 37.7% and the viability, T/C [18] was 19.6%. The viability, T/C [19] was 31.9%, the viability, T/C [20] was 31.8% and the viability, T/C [21] was 38%. The viability, T/C [22] was 31.1%, the viability, T/C [23] was 26.9% and the viability, T/C [24] was 17%. The viability, T/C [25] was 21.1%, the viability, T/C [26] was 22.8% and the viability, T/C [27] was 23.6%. It also gave a viability, T/C [28] of 17.7%, a viability, T/C [29] of 21.8% and a viability, T/C [30] of 18.7%. For the same compound, the viability, T/C [31] was 9.62%, the viability, T/C [32] was 14% and the viability, T/C [33] was 9.7%. It also gave a viability, T/C [34] of 10.8%, a viability, T/C [35] of 8.57% and a viability, T/C [36] of 6.68%.
Compound `CCCS(=O)(=O)Nc1ccc(F)c(C(=O)c2c[nH]c3ncc(-c4ccc(Cl)cc4)cc23)c1F` + COc1c(OCCCN2CCOCC2)ccc2c3n(c(=NC(=O)c4cnc(N)nc4)nc12)CCN3 has a pIC50 (second compound 0.00316 µM) of 5.72, a pIC50 (second compound 0.01 µM) of 5.37 and a pIC50 (second compound 0.0316 µM) of 5.64. For the same compound, the pIC50 (second compound 0.1 µM) was 7.50, the pIC50 (second compound 0.316 µM) was greater than 7.50 and the pIC50 (second compound 1 µM) was greater than 7.50. The viability, T/C [5] was 117%, the viability, T/C [6] was 87% and the viability, T/C (second compound 0.00316 µM, first compound 0.316 µM) was 71.5%. It also gave a viability, T/C (second compound 0.00316 µM, first compound 1 µM) of 66.4%, a viability, T/C (second compound 0.00316 µM, first compound 3.16 µM) of 59.5% and a viability, T/C (second compound 0.00316 µM, first compound 10 µM) of 10.7%. It also gave a viability, T/C [11] of 104%, a viability, T/C [12] of 53.6% and a viability, T/C (second compound 0.01 µM, first compound 0.316 µM) of 66.5%. It also gave a viability, T/C (second compound 0.01 µM, first compound 1 µM) of 70.9%, a viability, T/C (second compound 0.01 µM, first compound 3.16 µM) of 64.1% and a viability, T/C (second compound 0.01 µM, first compound 10 µM) of 8.97%. For the same compound, the viability, T/C [17] was 45.4%, the viability, T/C [18] was 70% and the viability, T/C (second compound 0.0316 µM, first compound 0.316 µM) was 43.8%. For the same compound, the viability, T/C (second compound 0.0316 µM, first compound 1 µM) was 64.1%, the viability, T/C (second compound 0.0316 µM, first compound 3.16 µM) was 47.9% and the viability, T/C (second compound 0.0316 µM, first compound 10 µM) was 10.2%. For the same compound, the viability, T/C [23] was 34.4%, the viability, T/C [24] was 39.3% and the viability, T/C (second compound 0.1 µM, first compound 0.316 µM) was 71.2%. It also gave a viability, T/C (second compound 0.1 µM, first compound 1 µM) of 26.8%, a viability, T/C (second compound 0.1 µM, first compound 3.16 µM) of 28.2% and a viability, T/C (second compound 0.1 µM, first compound 10 µM) of 14.4%. The viability, T/C [29] was 21.7%, the viability, T/C [30] was 19.6% and the viability, T/C (second compound 0.316 µM, first compound 0.316 µM) was 21.3%. For the same compound, the viability, T/C (second compound 0.316 µM, first compound 1 µM) was 16%, the viability, T/C (second compound 0.316 µM, first compound 3.16 µM) was 16.1% and the viability, T/C (second compound 0.316 µM, first compound 10 µM) was 9.88%. It also gave a viability, T/C [35] of 10%, a viability, T/C [36] of 14.3% and a viability, T/C (second compound 1 µM, first compound 0.316 µM) of 8.54%. It also gave a viability, T/C (second compound 1 µM, first compound 1 µM) of 6.57%, a viability, T/C (second compound 1 µM, first compound 3.16 µM) of 9.78% and a viability, T/C (second compound 1 µM, first compound 10 µM) of 4.54%.
